{
  "source": "ChEMBL document CHEMBL1132010",
  "about": "“In vivo anti-HIV activity of (+)-calanolide A in the hollow fiber mouse model” (Bioorg Med Chem Lett, 1999)",
  "key": {"Mus musculus [1]": {"tested_on": "Mus musculus", "assay": "Compound dose required to produce significant anti-HIV activity in mice after i.p. administration, given twice daily (q12h)", "assay_type": "functional"}, "Mus musculus [2]": {"tested_on": "Mus musculus", "assay": "Compound dose (dosing schedule - q8h) that produced a decrease in RT activity without protection against decreased cell viability in mice", "assay_type": "functional"}, "Mus musculus [3]": {"tested_on": "Mus musculus", "assay": "Compound dose required to produce significant anti-HIV activity in mice after oral administration, given twice daily (q12h)", "assay_type": "functional"}, "Mus musculus [4]": {"tested_on": "Mus musculus", "assay": "Compound dose (dosing schedule - q8h) that prevented a decrease in RT activity and p24 antigen production without increase in cell viability in mice.* dose was found to be toxic", "assay_type": "functional"}, "[5]": {"assay": "Compound dose that was proved to be lethally toxic to mice (q12h)", "assay_type": "ADME", "settings": "mouse, in vivo"}, "[6]": {"assay": "Compound dose that was proved to be lethally toxic to mice (q24h)", "assay_type": "ADME", "settings": "mouse, in vivo"}},
  "data": [
    {"smiles": "CCCc1cc(=O)oc2c3c(c4c(c12)OC(C)(C)C=C4)O[C@H](C)[C@@H](C)[C@@H]3O", "note": "[CALANOLIDE A]", "values": [
      {"measurement": "Dose", "setting": "Mus musculus [1]", "result": 200, "unit": "mg/kg"},
      {"measurement": "Dose", "setting": "Mus musculus [2]", "result": 100, "unit": "mg/kg"},
      {"measurement": "Dose", "setting": "Mus musculus [3]", "result": 150, "unit": "mg/kg"},
      {"measurement": "Dose", "setting": "Mus musculus [4]", "result": 150, "unit": "mg/kg"},
      {"measurement": "Toxic", "setting": "[5]", "result": 200, "unit": "mg/kg"},
      {"measurement": "Toxic", "setting": "[6]", "result": 300, "unit": "mg/kg"}
    ]}
  ]
}
